# Measurements published in patent publication US20120324604A1, “PESTICIDAL MIXTURES CONTAINING ISOXAZOLINE DERIVATIVES AND A FUNGICIDE” (priority 2010, published 2012).
# “And” between values parts separate entries of the source, which are not always exact repeats. Identical values can stand only once.
# Key:
# Format in all cases: cell-based
# [1] = test system: Glomerella lagenarium (syn. Colletotrichum lagenarium); assay: Glomerella lagenarium (Anthracnose of Cucurbits) growth inhibition, microtiter plate, photometric; settings: alone
# Method: Glomerella lagenarium (syn. Colletotrichum lagenarium), Anthracnose of Cucurbits:
# (§1) Conidia of the fungus from cryogenic storage were directly mixed into nutrient broth (potato dextrose broth). After placing a (DMSO) solution of the test compounds into a microtiter plate (96-well format) the nutrient broth containing the fungal spores was added.
# [2] = test system: Mycosphaerella arachidis (syn. Cercospora arachidicola); assay: Mycosphaerella arachidis (Brown Leaf Spot of Groundnut) growth inhibition, microtiter plate, photometric; settings: alone
# Method: Mycosphaerella arachidis (syn. Cercospora arachidicola), Brown Leaf Spot of Groundnut (Peanut):
# as §1
# Gaeumannomyces graminis = Gaeumannomyces graminis growth inhibition, microtiter plate, photometric
# Method: Mycelial fragments of the fungus from cryogenic storage were directly mixed into nutrient broth (potato dextrose broth). After placing a (DMSO) solution of the test compounds into a microliter plate (96-well format) the nutrient broth containing the fungal spores was added.
# Rhizoctonia solani = Rhizoctonia solani (Foot Rot, Damping-Off) growth inhibition, microtiter plate, photometric; settings: applied alone
# Method: Rhizoctonia solani (Foot Rot, Damping-Off):
# Mycelial fragments of the fungus from cryogenic storage were directly mixed into nutrient broth (potato dextrose broth). After placing a (DMSO) solution of the test compounds into a microtiter plate (96-well format) the nutrient broth containing the fungal spores was added.
# Septoria tritici = Septoria tritici (Leaf Blotch) growth inhibition, microtiter plate, photometric
# Method: Septoria tritici (Leaf Blotch):
# as §1
# Fusarium culmorum = Fusarium culmorum (Root Rot) growth inhibition, microtiter plate, photometric; settings: alone, 2 PPM AI
# Method: Fusarium culmorum (Root Rot):
# as §1
compound,measurement,setting,value
CO/C=C(\C(=O)OC)c1ccccc1Oc1cc(Oc2ccccc2C#N)ncn1 [Azoystrobin],AVERAGE DEAD IN %,[1]; 0.0078125 ppm AI,0%
same,AVERAGE DEAD IN %,[1]; 0.015625 ppm AI,50%
same,AVERAGE DEAD IN %,[1]; 0.03125 ppm AI,50%
same,AVERAGE DEAD IN %,[1]; 0.0625 ppm AI,70%
Cn1cc(C(=O)Nc2cccc3c2C2CCC3C2=C(Cl)Cl)c(C(F)F)n1 (stereo not drawn) [COMPOUND III],AVERAGE DEAD IN %,[1]; 0.0078125 ppm AI,0%
same,AVERAGE DEAD IN %,[1]; 0.015625 ppm AI,0%
same,AVERAGE DEAD IN %,[1]; 0.125 ppm AI,50%
same,AVERAGE DEAD IN %,[2]; 0.0078125 ppm AI,0%
same,AVERAGE DEAD IN %,[2]; 0.015625 ppm AI,0%
same,AVERAGE DEAD IN %,[2]; 0.03125 ppm AI,20%
same,AVERAGE DEAD IN %,[2]; 0.0625 ppm AI,90%
same,AVERAGE DEAD IN %,[2]; 0.03125 PPM AI,70% and 50%
same,AVERAGE DEAD IN %,[2]; 0.0625 PPM AI,100% and 70% and 90%
same,AVERAGE DEAD IN %,[2]; 0.125 PPM AI,90%
same,AVERAGE DEAD IN %,Gaeumannomyces graminis; single compound at 0.00390625 ppm AI,0%
same,AVERAGE DEAD IN %,Gaeumannomyces graminis; single compound at 0.0078125 ppm AI,0%
same,AVERAGE DEAD IN %,Gaeumannomyces graminis; single compound at 0.0625 ppm AI,70% and 90%
same,AVERAGE DEAD IN %,Gaeumannomyces graminis; single compound at 0.125 ppm AI,90%
same,AVERAGE DEAD IN %,Gaeumannomyces graminis; single compound at 0.25 ppm AI,100%
same,AVERAGE DEAD IN %,Gaeumannomyces graminis; single compound at 0.5 ppm AI,100%
same,AVERAGE DEAD IN %,Gaeumannomyces graminis; single compound at 1 ppm AI,100%
same,AVERAGE DEAD IN %,Gaeumannomyces graminis; single compound at 2 ppm AI,100%
same,AVERAGE DEAD IN %,Rhizoctonia solani; 0.03125 ppm AI,90%
same,AVERAGE DEAD IN %,"Septoria tritici; 0.125 ppm AI, alone",20%
same,AVERAGE DEAD IN %,"Septoria tritici; 0.25 ppm AI, alone",70% and 50%
same,AVERAGE DEAD IN %,"Septoria tritici; 0.5 ppm AI, alone",90%
same,AVERAGE DEAD IN % COMPOUND III,"Septoria tritici; COMPOUND III alone, 0.0078125 ppm AI",0%
same,AVERAGE DEAD IN % COMPOUND III,"Septoria tritici; COMPOUND III alone, 0.015625 ppm AI",0%
same,AVERAGE DEAD IN % COMPOUND III,"Septoria tritici; COMPOUND III alone, 0.03125 ppm AI",0%
same,AVERAGE DEAD IN % COMPOUND III,"Septoria tritici; COMPOUND III alone, 0.0625 ppm AI",0%
same,AVERAGE DEAD IN % COMPOUND III,"Septoria tritici; COMPOUND III alone, 0.125 ppm AI",20%
same,AVERAGE DEAD IN % COMPOUND III,"Septoria tritici; COMPOUND III alone, 0.25 ppm AI",50% and 70%
same,AVERAGE DEAD IN % COMPOUND III,"Septoria tritici; COMPOUND III alone, 0.5 ppm AI",70%
same,AVERAGE DEAD IN % COMPOUND III,"Septoria tritici; COMPOUND III alone, 1 ppm AI",90%
CC(C1CC1)C(O)(Cn1cncn1)c1ccc(Cl)cc1 (stereo not drawn) [Cyproconazole],AVERAGE DEAD IN %,[2]; 0.125 ppm AI,70%
same,AVERAGE DEAD IN %,[2]; 0.0625 PPM AI,0%
same,AVERAGE DEAD IN %,[2]; 0.125 PPM AI,20%
same,AVERAGE DEAD IN %,[2]; 0.25 PPM AI,70% and 100%
same,AVERAGE DEAD IN %,[2]; 0.5 PPM AI,100%
same,AVERAGE DEAD IN %,Fusarium culmorum,20%
same,AVERAGE DEAD IN %,Gaeumannomyces graminis; single compound at 0.25 ppm AI,20%
same,AVERAGE DEAD IN %,Gaeumannomyces graminis; single compound at 0.5 ppm AI,50% and 90%
same,AVERAGE DEAD IN %,Gaeumannomyces graminis; single compound at 1 ppm AI,70%
same,AVERAGE DEAD IN %,Gaeumannomyces graminis; single compound at 2 ppm AI,90%
same,AVERAGE DEAD IN %,Rhizoctonia solani; 0.25 ppm AI,20%
same,AVERAGE DEAD IN %,Rhizoctonia solani; 2 ppm AI,70% and 100%
same,AVERAGE DEAD IN %,"Septoria tritici; 0.25 ppm AI, alone",20%
same,AVERAGE DEAD IN %,"Septoria tritici; 0.5 ppm AI, alone",50%
same,AVERAGE DEAD IN %,"Septoria tritici; 1 ppm AI, alone",70%
same,AVERAGE DEAD IN %,"Septoria tritici; 2 ppm AI, alone",90%
same,AVERAGE DEAD IN % Cyproconazole,"Septoria tritici; Cyproconazole alone, 0.5 ppm AI",50%
same,AVERAGE DEAD IN % Cyproconazole,"Septoria tritici; Cyproconazole alone, 1 ppm AI",70%
same,AVERAGE DEAD IN % Cyproconazole,"Septoria tritici; Cyproconazole alone, 2 ppm AI",90%
same,AVERAGE DEAD IN %,"Septoria tritici; alone, 0.25 ppm AI",0%
same,AVERAGE DEAD IN %,"Septoria tritici; alone, 0.5 ppm AI",50%
same,AVERAGE DEAD IN %,"Septoria tritici; alone, 1 ppm AI",70%
same,AVERAGE DEAD IN %,"Septoria tritici; alone, 2 ppm AI",70%
